Assay results from US20070135382A1, “Use of peroxisome proliferator-activated receptor gamma (ppary) and/or retinoic acid receptor (rxr) agonists to inhibit platelet functions” (priority 2003, published 2007).

Tests used:
platelets [1] = assay: ATP release from platelets during aggregation (Lumi-aggregometry); details: 20 μM
Procedure: ATP release from platelets during aggregation was characterized by Lumi-Aggregometry after stimulation with thrombin (1 U/ml) or ADP (5 μM). […] The rate of release with normal platelets was defined as 100%. […] The results represent mean±SEM of three experiments.
Platelet aggregation was performed using the turbidometric method of Born (“Quantitative Investigations into the Aggregation of Blood Platelets,” J. Physiol. Lond. 162:67 (1962), which is hereby incorporated by reference in its entirety) with simultaneous measurement of ATP release using a Chrono-log Lumi-aggregometer with AGGRO/LINK for Windows Software version 5.1.6 (Chrono-log Corp., Havertown, Pa.). Blood was collected by clean venipuncture from normal donors who abstained from drugs known to affect platelet aggregation into 0.105M/sodium citrate. Platelet rich plasma (PRP) was prepared by centrifugation at 150×g for 10 min at 20° C., and the platelet count adjusted to 250,000/μl by mixing PRP and platelet poor plasma from the same donor. All experiments were performed within 3 hours of blood collection. Aggregation was performed with ADP, and the slope of aggregation and amplitude were computed using accompanying software. The effects of the PPARγ agonist 15d-PGJ2 were tested by addition of varying concentrations to PRP for 15 min before aggregation. The 15d-PGJ2 was dissolved in DMSO, with a final concentration of DMSO in the samples of approximately 0.1%. […] Additional clotting studies were performed using a PFA-100 according to the manufacturer's instructions. Basically, clotting time (induced by clotting activator such as epinephrine or ADP) was measured in the presence or absence of a PPARγ agonist, and differences noted.
To determine if a PPARγ agonist would inhibit platelet aggregation, the natural PPARγ agonist 15d-PGJ2 was added to PRP and aggregation and ATP release stimulated with ADP.

PPARγ [2] = biological target: T1, PPARγ (Homo sapiens, UniProt P37231); assay: TransAM PPARγ DNA binding activity assay in platelets; format: cell-based; details: platelets exposed to 20 μM agonist, 2 h at 37° C.
T1 construct: 10 μg of cell extract was incubated in each well of TransAM® PPARγ assay kit; endogenous in cells; host or cells: purified human blood platelets
T1 sequence (P37231 1-505): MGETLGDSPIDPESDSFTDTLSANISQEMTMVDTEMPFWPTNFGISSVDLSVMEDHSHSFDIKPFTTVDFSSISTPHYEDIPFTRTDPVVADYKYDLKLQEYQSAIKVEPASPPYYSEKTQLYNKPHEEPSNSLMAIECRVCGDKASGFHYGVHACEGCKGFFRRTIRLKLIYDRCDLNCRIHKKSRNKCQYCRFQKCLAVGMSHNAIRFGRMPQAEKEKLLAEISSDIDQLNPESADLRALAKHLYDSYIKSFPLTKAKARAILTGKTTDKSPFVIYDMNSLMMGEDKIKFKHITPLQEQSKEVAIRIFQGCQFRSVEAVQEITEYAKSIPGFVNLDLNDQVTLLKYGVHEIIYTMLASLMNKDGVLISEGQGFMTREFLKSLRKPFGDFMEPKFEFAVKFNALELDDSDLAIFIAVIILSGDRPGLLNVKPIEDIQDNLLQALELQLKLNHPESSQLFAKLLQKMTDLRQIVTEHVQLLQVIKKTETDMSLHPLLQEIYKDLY
T1 sequence (P19793 1-462 partner): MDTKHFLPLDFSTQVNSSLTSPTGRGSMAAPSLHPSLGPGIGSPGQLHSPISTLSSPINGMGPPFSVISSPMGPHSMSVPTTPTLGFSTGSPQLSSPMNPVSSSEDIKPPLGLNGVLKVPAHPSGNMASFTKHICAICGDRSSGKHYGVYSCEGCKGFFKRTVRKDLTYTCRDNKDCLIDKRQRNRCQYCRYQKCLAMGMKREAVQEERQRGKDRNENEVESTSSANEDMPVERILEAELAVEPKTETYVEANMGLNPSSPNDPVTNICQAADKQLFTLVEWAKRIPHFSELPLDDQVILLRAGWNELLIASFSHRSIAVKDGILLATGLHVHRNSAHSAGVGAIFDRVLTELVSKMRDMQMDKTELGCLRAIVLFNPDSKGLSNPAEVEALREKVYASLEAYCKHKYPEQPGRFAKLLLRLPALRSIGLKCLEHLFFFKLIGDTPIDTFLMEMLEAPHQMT
Procedure: Platelets were lysed with hypotonic buffer (10 mM HEPES-KOH (pH 7.9), 1.5 mM MgCl2, 10 mM KCl, 0.5 mM DTT, 0.5% Nonidet P-40 and 0.2 mM PMSF) and 10 μg of cell extract was incubated in each well of TransAM® PPARγ assay kit (Active Motif, Carlsbad, Calif.) and PPARγ DNA binding was determined as per manufacturers' protocol.
The ability of platelet derived PPARγ to bind its DNA consensus sequence was also measured using the TransAM™ PPARγ assay kit (Active Motif Inc.). In this method the consensus DNA sequence for PPARγ binding (or as a control mutated oligonucleotides) is plate-bound. A cell lysate is then added to the well, washed and next incubated with an enzyme-conjugated anti-PPARγ antibody that recognizes only DNA-bound PPARγ. Following substrate addition, a colored product is formed.

human platelets [3] = assay: Thrombin-induced platelet release of CD40L (ELISA); format: cell-based; details: 20 μM for 15 min, then 0.8 U/ml thrombin, 5-60 min
Procedure: (§1) Platelets were then activated with 0.8 U/ml thrombin or buffer and samples were taken at the 5, 10, 15, 30 and 60 minutes time points to measure human soluble CD40L and PGE2. CD40L assays were performed with a commercially available ELISA specific for CD40L (Bender Biomedical Systems, San Bruno, Calif.). […] The stable end product of platelet TXA2 synthesis, namely TXB2, was measured using a highly specific enzyme immunoassay from Cayman Chemical Company as per the manufacturer's directions.
(§2) Platelets were then incubated with buffer or with thrombin, a powerful platelet activator.

PPARγ [4] = biological target: T1, PPARγ; assay: Electrophoretic mobility shift assay for PPARγ DNA binding in Meg-01 cells; format: cell-based; details: 15d-PGJ2 5 μM or ciglitazone 10 μM, 4 hours, nuclear extract, vs DMSO
Procedure: Cells were treated with 5 μM 15d-PGJ2, 10 μM ciglitazone, or DMSO (vehicle control) for 4 hours. The cells were washed in cold PBS and then incubated on ice in hypotonic buffer (10 mM HEPES-KOH (pH 7.9), 1.5 mM MgCl2, 10 mM KCl, 0.5 mM DTT, 0.5% Nonidet P-40 and 0.2 mM PMSF) for 10 minutes. The lysates were vortexed for 10 seconds and centrifuged for 15 seconds. The pellet was isolated carefully and re-suspended in 80 μl of hypertonic buffer (20 mM HEPES-KOH (pH 7.9), 1.5 mM MgCl2, 25% glycerol, 420 mM NaCl, 0.2 mM EDTA, 0.5 mM DTT, and 0.2 mM PMSF). After incubation on ice for 20 minutes, lysates were centrifuged for 20 seconds and the supernatant containing the nuclear protein was transferred to new tubes. Protein quantification was performed using a BCA assay kit. Platelet protein isolation was done as described for the PPARγ activity assay. For the gel shift assay of Meg-01 and platelets, the consensus sequence for PPARγ (5′-[…]-3′) (SEQ ID NO: 1) was labeled with [γ-32P]ATP using T4 Polynucleotide Kinase (Life technologies). Micro Bio-Spin P-30 Tris Chromatography Columns were used to remove the unbound nucleotides (Bio-Rad). […]

platelets [5] = assay: Platelet aggregation in platelet rich plasma (turbidometric method of Born); format: cell-based, human
Procedure: Platelet aggregation was performed using the turbidometric method of Born (“Quantitative Investigations into the Aggregation of Blood Platelets,” J. Physiol. Lond. 162:67 (1962), which is hereby incorporated by reference in its entirety) with simultaneous measurement of ATP release using a Chrono-log Lumi-aggregometer with AGGRO/LINK for Windows Software version 5.1.6 (Chrono-log Corp., Havertown, Pa.). Blood was collected by clean venipuncture from normal donors who abstained from drugs known to affect platelet aggregation into 0.105M/sodium citrate. Platelet rich plasma (PRP) was prepared by centrifugation at 150×g for 10 min at 20° C., and the platelet count adjusted to 250,000/μl by mixing PRP and platelet poor plasma from the same donor. All experiments were performed within 3 hours of blood collection. Aggregation was performed with ADP, and the slope of aggregation and amplitude were computed using accompanying software. The effects of the PPARγ agonist 15d-PGJ2 were tested by addition of varying concentrations to PRP for 15 min before aggregation. The 15d-PGJ2 was dissolved in DMSO, with a final concentration of DMSO in the samples of approximately 0.1%.

Human blood = assay: PFA-100 clotting (closure) time in human blood; format: cell-based; details: vs vehicle only, p=0.012
Procedure: Platelet activation was induced using epinephrine or ADP, and clotting time was assessed using a PFA-100. The PFA-100 allows for an approximation of bleeding times in patients. Longer closure times equal a lower ability to form a clot. […] Human blood was exposed to 15d-PGJ2 or vehicle only followed by testing in the PFA-100 activated with ADP.

human platelets [6] = assay: Thrombin-induced platelet release of PGE2 (enzyme immunoassay); format: cell-based; details: 20 μM for 15 min, then 0.8 U/ml thrombin
Procedure: as §1

human platelets [7] = assay: Thrombin-induced platelet release of TXB2 (enzyme immunoassay); format: cell-based; details: 20 μM for 15 min, then 0.8 U/ml thrombin, 5-60 min
Procedure: as §1, §2

## CCCCC/C=C/C=C1/C(=O)C=C[C@@H]1C/C=C\CCCC(=O)O [15d-PGJ2, 15D-prostaglandin J2]
Platelets [1]; ADP-stimulated, n=7
  ATP release amplitude, % of normal platelets: 22±10%
  ATP release slope, % of normal: 15±5%
Platelets [1]; thrombin 1 U/ml
  rate of ATP release with thrombin: significant (P=0.002) reduction
PPARγ [2]
  binding to the PPARγ DNA response element (TransAM): significantly enhances binding
Human platelets [3]
  release of CD40L: largely prevented
PPARγ [4]
  level of active (DNA binding) PPARγ in Meg-01 cells by EMSA: increased
Platelets [5]; 10 μM, ADP as platelet agonist
  aggregation slope (rate): decrease the aggregation slope
Platelets [5]; 20 μM, ADP-stimulated PRP, first 16 seconds, mean±SEM, n=7
  initial slope of platelet aggregation, % of the normal (untreated): 83±5%
Platelets [5]; 20 μM, ADP-stimulated PRP, mean±SEM, n=7
  amplitude of aggregation, % of normal platelets: 64±11%
Platelets [5]; varying concentrations, 15 min before ADP
  platelet aggregation, concentration dependence: concentration dependent inhibition
Human blood
  PFA-100 closure time, ADP activated: takes longer to form a closure
Human platelets [6]
  thrombin-induced release of PGE2: substantially prevented
Human platelets [7]
  release of TXB2: largely prevented
